Source: patent publication US9079866B2, “Flap modulators” (JANSSEN PHARMACEUTICA NV, priority 2013, dated 2015)
Structures can show the parent of a compound that is named as a salt. Where two headings read alike, the source gives them in different places.

Columns and labels:
human FLAP = human FLAP (Homo sapiens (Human), UniProt P20292); assay: FLAP binding assay (HTRF format)
In short: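 Reported data take the mean of two different plates carrying duplicate samples and use the HTRF ratio as the measured signal.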

[1] = test system: leukotriene pathway in human whole blood (LTB4 levels); assay: Human whole blood assay (A23187-stimulated LTB4); assay type: cell-based; conditions: Homo sapiens, read-out: LTB4 IC50 1:1
In short: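 Compounds are pre-incubated 15 min at 37° Celsius in RPMI-diluted (1:1) heparinised whole blood before a 30 min A23187 stimulus (7 μg/mL). Plasma LTB4 is read by immunoassay kit, with IC50 calculated from a 4-parameter equation.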

[2] = human FLAP wild type, HTRF format, average of two plates, duplicates
[3] = human whole blood diluted 1:1 in RPMI, A23187-stimulated LTB4
[4] = human whole blood diluted 1:1, A23187-stimulated

Chain of human FLAP (P20292 whole entry): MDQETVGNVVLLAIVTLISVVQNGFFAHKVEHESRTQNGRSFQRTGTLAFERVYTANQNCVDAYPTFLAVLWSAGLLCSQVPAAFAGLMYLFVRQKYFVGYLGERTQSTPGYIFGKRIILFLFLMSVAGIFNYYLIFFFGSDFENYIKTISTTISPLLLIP

| Structure (SMILES) | Ki (human FLAP; [2]) [nM] | IC50 [1, 3] [nM] | Ki (human FLAP; wild type FLAP, HTRF format) [nM] | IC50 [1, 4] [nM] | Ki (human FLAP; read-out: FLAP Binding wild type HTRF Ki) [nM] |
| --- | --- | --- | --- | --- | --- |
| CC(=O)NC1CCN(S(=O)(=O)c2ccccc2-c2ccc(-c3cnc(N)cn3)c(F)c2)CC1 [Example 75, N-(1-{[4′-(5-Aminopyrazin-2-yl)-3′-fluorobiphenyl-2-yl]sulfonyl}piperidin-4-yl)acetamide] | 12 | 185 |  |  |  |
| CC[C@H](CO)NS(=O)(=O)c1ccccc1-c1ccc(-c2cnc(N)cn2)c(F)c1 [Example 86, 4′-(5-Aminopyrazin-2-yl)-3′-fluoro-N-[(1R)-1-(hydroxymethyl)propyl]biphenyl-2-sulfonamide] | 3 | 27 |  |  |  |
| Nc1cnc(-c2ccc(-c3ccccc3-c3cncnc3)cc2F)cn1 [Example 848, 5-(3-Fluoro-2′-pyrimidin-5-ylbiphenyl-4-yl)pyrazin-2-amine] |  |  | 96.8 | 322 |  |
| Nc1ccc(-c2ccc(-c3ccccc3S(=O)(=O)N3CCS(=O)(=O)CC3)cc2F)cn1 [Example 354, 4-((4′-(6-Aminopyridin-3-yl)-3′-fluoro-[1,1′-biphenyl]-2-yl)sulfonyl)thiomorpholine 1,1-dioxide] | 37 | 93 |  |  |  |
| Nc1cnc(-c2ccc(-c3ccccc3S(=O)(=O)N[C@H]3CCCC[C@@H]3O)cc2F)cn1 (racemic) [Example 120, Racemic-(trans)-4′-(5-Aminopyrazin-2-yl)-3′-fluoro-N-(2-hydroxycyclohexyl)biphenyl-2-sulfonamide] | 1 | 17 |  |  |  |
| CC(C)S(=O)(=O)Nc1ccccc1-c1ccc(-c2cnc(N)cn2)c(F)c1 [Example 34, N-(4′-(5-Aminopyrazin-2-yl)-3′-fluoro-[1,1′-biphenyl]-2-yl)propane-2-sulfonamide] | 31 | 334 |  |  |  |
| CC(C)(C)NS(=O)(=O)c1ccccc1-c1ccc(-c2cnc(N)c(N)n2)c(F)c1 [Example 428, N-tert-Butyl-4′-(5,6-diaminopyrazin-2-yl)-3′-fluorobiphenyl-2-sulfonamide] |  |  | 4 | 4 |  |
| Nc1cnc(-c2ccc(-c3ccccc3S(=O)(=O)NC3CC4CCC3C4)cc2F)cn1 (racemic) [Example 10, racemic (endo)-4′-(5-Aminopyrazin-2-yl)-N-bicyclo[2.2.1]hept-2-yl-3′-fluorobiphenyl-2-sulfonamide] | 3 | 53 |  |  |  |
| Nc1cnc(-c2ccc(-c3ccc(C(F)(F)F)cc3F)cc2F)cn1 [Example 471, 5-[2′,3-Difluoro-4′-(trifluoromethyl)biphenyl-4-yl]pyrazin-2-amine] |  |  | 250 | 3400 |  |
| Nc1ncc(-c2ccc(-c3ccccc3S(=O)(=O)N3CC4(COC4)C3)cc2F)cn1 [Example 312, 5-(2′-(2-Oxa-6-azaspiro[3.3]heptan-6-ylsulfonyl)-3-fluoro-[1,1′-biphenyl]-4-yl)pyrimidin-2-amine] | 262 | 376 |  |  |  |
| CCC(C)(C)NS(=O)(=O)c1ccccc1-c1ccc(-c2ccc(N)nc2)c(F)c1 [Example 349, 4′-(6-Aminopyridin-3-yl)-3′-fluoro-N-(tert-pentyl)-[1,1′-biphenyl]-2-sulfonamide] | 1 | 13 |  |  |  |
| Nc1cnc(-c2ccc(-c3cccnc3O[C@H]3CC[C@H](N)CC3)cc2F)cn1 [Example 652, 5-(4-{2-[(trans-4-Aminocyclohexyl)oxy]pyridin-3-yl}-2-fluorophenyl)pyrazin-2-amine formic acid salt] |  |  | 62.7 | 842 |  |
| C[C@@H](NC(=O)c1cc(C(F)(F)F)ccc1-c1ccc(-c2cnc(N)nc2)c(F)c1)C(F)(F)F [Example 789, 2-[4-(2-Aminopyrimidin-5-yl)-3-fluoro-phenyl]-5-(trifluoromethyl)-N-[(1R)-2,2,2-trifluoro-1-methyl-ethyl]benzamide] |  |  | 130 | 939 |  |
| CC(C)(CO)CNS(=O)(=O)c1ccccc1-c1ccc(-c2cnc(N)nc2)c(F)c1 [Example 251, 4′-(2-Aminopyrimidin-5-yl)-3′-fluoro-N-(3-hydroxy-2,2-dimethylpropyl)biphenyl-2-sulfonamide] | 5 | 68 |  |  |  |
| N#Cc1nc(-c2ccc(-c3ccccc3S(=O)(=O)C3CC3)cc2F)cnc1N [Example 411, 3-Amino-6-[2′-(cyclopropylsulfonyl)-3-fluorobiphenyl-4-yl]pyrazine-2-carbonitrile] |  |  | 36 | 1970 |  |
| Nc1ncc(-c2ccc(-c3ccc(C(F)(F)F)cc3S(N)(=O)=O)cc2F)cn1 [Example 322, 4′-(2-Aminopyrimidin-5-yl)-3′-fluoro-4-(trifluoromethyl)biphenyl-2-sulfonamide] | 32 | 138 |  |  |  |
| Nc1ncc(-c2ccc(-c3ccccc3S(=O)(=O)N3CCC(F)(F)CC3)cn2)cn1 [Example 682, 5-(5-{2-[(4,4-Difluoropiperidin-1-yl)sulfonyl]phenyl}pyridin-2-yl)pyrimidin-2-amine trifluoroacetic acid salt] |  |  | 224 | 264 |  |

| Structure (SMILES) | Ki (human FLAP; [2]) [nM] | IC50 [1, 3] [nM] | Ki (human FLAP; wild type FLAP, HTRF format) [nM] | IC50 [1, 4] [nM] | Ki (human FLAP; read-out: FLAP Binding wild type HTRF Ki) [nM] |
| --- | --- | --- | --- | --- | --- |
| CNC1CCN(S(=O)(=O)c2ccccc2-c2ccc(-c3cnc(N)cn3)c(F)c2)CC1 [Example 72, 5-(3-Fluoro-2′-{[4-(methylamino)piperidin-1-yl]sulfonyl}biphenyl-4-yl)pyrazin-2-amine] | 111 | 168 |  |  |  |
| CC(C)SCc1ccccc1-c1ccc(-c2cnc(N)cn2)c(F)c1 [Example 236, 5-(3-Fluoro-2′-{[(1-methylethyl)sulfanyl]methyl}biphenyl-4-yl)pyrazin-2-amine hydrochloride] | 57 | 443 |  |  |  |
| Nc1cnc(-c2ccc(-c3ccccc3N3CCCCS3(=O)=O)cc2F)cn1 [Example 857, 5-[2′-(1,1-Dioxido-1,2-thiazinan-2-yl)-3-fluorobiphenyl-4-yl]pyrazin-2-amine] |  |  | 28 | 205 |  |
| CC(C)(C)OC(=O)N1CCC(COc2ncccc2-c2ccc(-c3cnc(N)cn3)c(F)c2)C1 (centres unmarked) [Example 406, tert-Butyl 3-[({3-[4-(5-aminopyrazin-2-yl)-3-fluorophenyl]pyridin-2-yl}oxy)methyl]pyrrolidine-1-carboxylate] |  |  | 135 | 4310 |  |
| Nc1ncc(-c2ccc(-c3ccc(C(F)(F)F)cc3O)cc2F)cn1 [Example 558, 4′-(2-Aminopyrimidin-5-yl)-3′-fluoro-4-(trifluoromethyl)biphenyl-2-ol] |  |  | 12 | 210 |  |
| N#Cc1nc(N)ccc1-c1ccc(-c2ccccc2S(=O)(=O)C2CC2)cc1F [Example 443, 6-Amino-3-(2′-(cyclopropylsulfonyl)-3-fluoro-[1,1′-biphenyl]-4-yl)picolinonitrile] |  |  | 343 | 3330 |  |
| Nc1cnc(-c2ccc(-c3ccc(C(F)(F)F)cc3C3=CCNCC3)cc2F)cn1 [Example 852, 5-[3-Fluoro-2′-(1,2,3,6-tetrahydropyridin-4-yl)-4′-(trifluoromethyl)biphenyl-4-yl]pyrazin-2-amine] |  |  | 118 | 1350 |  |
| CC(C)CS(=O)(=O)Nc1ccccc1-c1ccc(-c2cnc(N)cn2)c(F)c1 [Example 37, N-[4′-(5-Aminopyrazin-2-yl)-3′-fluorobiphenyl-2-yl]-2-methylpropane-1-sulfonamide] | 30 | 676 |  |  |  |
| Nc1ccnc(Oc2ccccc2-c2ccc(-c3cnc4[nH]ccc4c3)c(F)c2)n1 [Example 524, 2-{[3′-Fluoro-4′-(1H-pyrrolo[2,3-b]pyridin-5-yl)biphenyl-2-yl]oxy}pyrimidin-4-amine] |  |  | 1 | 18 |  |
| Nc1ncc(-c2ccc(-c3ccccc3S(=O)(=O)NCCO)cc2F)cn1 [Example 275, 4′-(2-Aminopyrimidin-5-yl)-3′-fluoro-N-(2-hydroxyethyl)biphenyl-2-sulfonamide trifluoroacetic acid salt] |  | 192 |  |  | 65 |
| O=S(=O)(c1ccccc1-c1ccc(-c2cnc3[nH]ccc3c2)c(F)c1)C1CC1 [Example 365, 5-[2′-(Cyclopropylsulfonyl)-3-fluorobiphenyl-4-yl]-1H-pyrrolo[2,3-b]pyridine] | 3 | 60 |  |  |  |
| C[C@@H](O)CNS(=O)(=O)c1ccccc1-c1ccc(-c2cnc(N)nc2)nc1 [Example 689, 2-[6-(2-Aminopyrimidin-5-yl)pyridin-3-yl]-N-[(2R)-2-hydroxypropyl]benzenesulfonamide] |  |  | 485 | 787 |  |
| Nc1cnc(-c2ccc(-c3ccccc3Oc3cccc(C(F)(F)F)n3)cc2F)cn1 [Example 625, 5-(3-Fluoro-2′-{[6-(trifluoromethyl)pyridin-2-yl]oxy}biphenyl-4-yl)pyrazin-2-amine] |  |  | 7.8 | 173 |  |
| Nc1cnc(-c2ccc(-c3ccccc3S(=O)(=O)N3CCC(c4c[nH]cn4)CC3)cc2F)cn1 [Example 164, 5-(3-Fluoro-2′-{[4-(1H-imidazol-4-yl)piperidin-1-yl]sulfonyl}biphenyl-4-yl)pyrazin-2-amine] | 1 | 333 |  |  |  |
| Nc1cnc(-c2ccc(-c3ccccc3O)cc2F)cn1 [Example 476, 4′-(5-Aminopyrazin-2-yl)-3′-fluorobiphenyl-2-ol] |  |  | 32 | 891 |  |
| Nc1ccc(-c2ccc(-c3ccccc3S(=O)(=O)N3C[C@@H]4C[C@H]3CO4)cc2F)cn1 [Example 663, 5-(2′-((1S,4S)-2-Oxa-5-azabicyclo[2.2.1]heptan-5-ylsulfonyl)-3-fluoro-[1,1′-biphenyl]-4-yl)pyridin-2-amine] |  |  | 5.8 | 34.7 |  |
| CCSCc1ccccc1-c1ccc(-c2cnc(N)cn2)c(F)c1 [Example 234, 5-{2′-[(Ethylsulfanyl)methyl]-3-fluorobiphenyl-4-yl}pyrazin-2-amine formic acid salt] | 25 | 238 |  |  |  |
